Source: article PMC6811774, “Potent, selective, and subunit‐dependent activation of TRPC5 channels by a xanthine derivative” (British Journal of Pharmacology, 2019)

Legend:
[1] = system: HEK T-REx (Tet+) cells expressing TRPC5; test: LIVE/DEAD cell viability assay; format: cell-based, human; settings: AM237 up to 1 μM, 30 min
Protocol: Cell viability was assayed using the LIVE/DEAD® cell viability kit (Molecular Probes™, Eugene, Oregon, USA). HEK T‐REx expressing tetracycline‐inducible hTRPC5 were plated onto black, clear bottom poly‐D‐lysine‐coated 96‐well plates, at 25,000 cells per well, and TRPC5 protein expression was induced with 1 μg·ml^−1 tetracycline. Cells were cultured for 24 hr in DMEM‐F12 GlutaMAX (Invitrogen, Paisley, UK) containing 10% FBS, with the addition of blasticidin (10 μg·ml^−1) and zeocin (400 μg·ml^−1). For wells containing methanol‐treated positive control cells, medium was removed and 70% methanol/distilled water (100 μl) was added and cells returned to the incubator for 30 min. After incubation, the solution in each well was replaced with recording buffer (SBS with 0.01% pluronic acid and 0.05% DMSO; 100 μl). The LIVE/DEAD® (Molecular Probes™, Eugene, Oregon, US) cell viability kit was used to stain the cells. Calcein AM (5 μl) and ethidium homodimer‐1 (20 μl) were added to SBS with […] (10 ml). Compound and vehicle dilutions were carried out directly in LIVE/DEAD® solution and 100 μl of each was added to the recording buffer in each corresponding well. Cells were incubated for 30 min and immediately imaged. Imaging and analysis was carried out on the IncuCyte® ZOOM (Essen Bioscience, Welwyn Garden City, UK).

[2] = system: WT HEK 293 cells; test: Whole-cell patch-clamp in WT HEK 293 cells; format: cell-based, human; settings: AM237 1–100 nM; EA 30 nM
Protocol: For electrophysiology experiments, cells were plated at a low density of 20–30% onto round or square glass coverslips (13 mm diameter or 5 × 5 mm), and TRPC expression in HEK T‐REx was induced with 1 μg·ml^−1 tetracycline 24 hr before experimentation. Experiments were carried out at room temperature. Extracellular solution consisted of SBS. Patch‐clamp recordings were performed in whole‐cell mode (Figure S7) and in excised outside‐out patch mode under voltage clamp at room temperature using 2–4 MΩ patch pipettes fabricated from borosilicate glass capillaries with an outside diameter of 1 mm and an inside diameter of 0.58 mm (Harvard Apparatus). The voltage protocol comprised voltage ramps applied from −100 to +100 mV every 10 s from a holding potential of 0 mV. […] All solutions were filtered using a 0.2 μm filter (Sartorius, UK).

How did the “Cell viability (LIVE/DEAD)” value [1] turn out when `Cn1c(=O)n(CCCO)c(=O)c2c1nc(Oc1ccc(Cl)c(OC(F)(F)F)c1)n2Cc1ccc(Cl)cc1` [AM237] was run?
Its value is “did not lead to reduced”.

What about the “Effect on whole-cell currents at +100 and -100 mV” value [2] of the same compound?
Its value is “no significant effect”.
